US20250051316A1, “2-(ARYL-2-YL) […] […], PREPARATION METHOD THEREFOR AND APPLICATION THEREOF” (SHANGHAI HANSOH BIOMEDICAL CO., LTD., priority 2021, published 2025)

How the values were obtained:
TAAR1 receptor = molecular target: T1, TAAR1 receptor (Homo sapiens, UniProt Q96RJ0); test: Effect on cAMP content in cells which stably express TAAR1 receptor; type: cell-based
T1 construct: expressed in transfected cells
T1 sequence (Q96RJ0 1-339): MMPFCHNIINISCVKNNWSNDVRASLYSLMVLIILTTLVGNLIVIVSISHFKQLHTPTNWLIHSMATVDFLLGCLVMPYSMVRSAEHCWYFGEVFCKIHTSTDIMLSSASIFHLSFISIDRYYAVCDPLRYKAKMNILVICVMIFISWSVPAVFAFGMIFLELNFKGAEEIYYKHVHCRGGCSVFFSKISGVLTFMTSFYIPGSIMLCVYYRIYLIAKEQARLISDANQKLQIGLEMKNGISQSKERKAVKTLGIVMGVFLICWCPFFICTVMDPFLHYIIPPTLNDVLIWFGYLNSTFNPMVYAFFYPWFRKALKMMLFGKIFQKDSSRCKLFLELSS
Method: Test Example1. Determination of the effect of the present compound on cAMP content in cells which stably express TAAR1 receptor
Determination of the activation effect of compounds on TAAR1 receptors.
• 1) Preparation of experimental buffer: 1*HBSS+20 mM HEPES+0.1% BSA+500 μM IBMX. • 2) Complete medium: • Ham's F12K+10% Fetal Bovine Serum+1*Penicillin-Streptomycin+200 μg/mL Hygromycin B for CHO • DMEM+10% Fetal Bovine Serum+1*Penicillin-Streptomycin+200 μg/mL Hygromycin B for HEK293 • 3) TAAR1 cell line was cultured in complete medium at 37° C. and 5% CO2; After TrypLE digestion, the cells were resuspended in the experimental buffer and seeded into a 384 cell culture plate with a density of 8000 cells/15 ul/well. • 4) The compound was diluted with experimental buffer and added 5 μL to each well to culture at 37° C. for 30 minutes. • 5) cAMP-d2 and Anti cAMP Eu3+ were freeze thaw, and diluted 20 times with lysis buffer; 10 μL cAMP-d2 was added to the experimental well, and then 10 μL Anti cAMP Eu3+ was added into the experimental well; the reaction plate was centrifuged at 200 g for 30 seconds at room temperature, and stand at 25° C. for 1 hour; data was collected by Envision.
[formula] • 5) EC50 of compounds was calculated using GraphPad nonlinear fitting formula:
[formula] • X: Log value of the compound concentration; Y: Activation %

[1] = Pharmacokinetic assay of Balb/c mice, plasma and brain, oral; type: in vivo; settings: male, mouse, p.o. 5 mg/kg
Method: Test Example 3. Pharmacokinetic Assay of Balb/c Mice
Balb/c Mice were used as test animals. The pharmacokinetic behavior of the compounds of the present invention was studied in the plasma and brain of mice administered orally at the dose of 5 mg/kg.
Balb/c Mice, male, Shanghai Jiesijie Experimental Animal Co., Ltd., animal production license number (SCXK (Shanghai) 2013-0006 N0.311620400001794).
After fasting overnight, 24 male Balb/c mice were administered p.o. at a dose of 5 mg/kg and an administration volume of 10 mL/kg, respectively.
Drug formulation for oral administration: 0.5% CMC-Na (1% Tween 80).
After CO2 euthanasia of experimental animals, heart blood and brain tissue were collected at 0.25 h, 0.5 h, 1 h, 2 h, 4 h, 6 h, 8 h, and 24 h after administration. The blood was placed in EDTA-2K tubes and centrifuged at 4° C. and 6000 rpm for 6 minutes to separate plasma. The brain tissue was washed with pre-cooled PBS, dried, weighed, and stored at −80° C. The animals were feed 4 hours after administration.
1) 160 μL of acetonitrile was added to 40 μL of the plasma sample for precipitation, and then the mixture was centrifuged at 3500×g for 5-20 min.
2) 100 μL of the supernatant was taken to analyze the concentration of the test compound by LC/MS/MS.
• Liquid chromatography condition: Shimadzu LC-20AD pump • Mass spectrometry condition: AB Sciex API 4000 mass spectrometer • Chromatographic column: phenomenex Gemiu 5 μm C18 50×4.6 mm • Mobile phase: Eluent A was 0.10% formic acid in water, and Eluent B was acetonitrile • Flow rate: […] • Elution time: 0-4.0 minutes, the eluent is as follows:
The main pharmacokinetic parameters were calculated using WinNonlin8.1, and the results of the pharmacokinetic experiments in mouse are shown in the table below.

[2] = system: C57BL/6 mice, high spontaneous activity induced by phencyclidine (PCP); test: High spontaneous activity model of mice induced by phencyclidine (PCP); type: in vivo; settings: 60 minutes after modeling
From the text: Test Example 2. Pharmacodynamic Evaluation of the Present Compounds in Mice Model of High Spontaneous Activity Induced by Phencyclidine (PCP)
The purpose of the experiment is to evaluate the efficacy of compounds in a high spontaneous activity model of C57BL/6 mice induced by phencyclidine (PCP) using the spontaneous activity method.
C57BL/6 mice, provided by Shanghai Lingchang Biotechnology Co., Ltd., male, 6-8 weeks, 20-24 g, 36 mice.
The day before the experimental test, the animals were placed in the laboratory and acclimated for 8 hours.
On the day of adaptation, the animals were randomly grouped according to their weight.
The animals were weithed and treated with solvent control (20% HP-3-CD), compounds of the present invention (oral administration) respectively. 30 minutes later, modeling (intraperitoneal administration) was performed, and the animals were given physiological saline or phencyclidine, with dosage volume of 10 mL/kg.
After the administration, the animals were placed in observation box and the spontaneous activity was detected for 30 minutes. The moving distance (meters) of the animals in the observation box was counted every 5 minutes.
After 30 minutes, the animals were taken out for modeling and then placed in the observation box to test their spontaneous activity for 60 minutes. The moving distance (meters) of the animals in the observation box was counted every 5 minutes.
Excel software was used to collect data. A Two-Way ANOVA or One-Way ANOVA was conducted used Prism (Graph pad software, Inc.) software. p<0.05 was considered significant difference.

Row | Structure (SMILES) | EC50 (TAAR1 receptor) [nM] | AUC(0-t) ([1]; Brain) [ng·h/mL] | Cmax ([1]; Brain) [ng/mL] | Tmax ([1]; Brain) [min] | half-life ([1]; Brain) [min] | AUC(0-t) ([1]; Plasma) [ng·h/mL] | Cmax ([1]; Plasma) [ng/mL] | Tmax ([1]; Plasma) [min] | half-life ([1]; Plasma) [min] | Total distance (m, Mean ± SEM) 60 minutes ([2]; compound 3 mg/kg oral + PCP 5 mg/kg i.p.) [m] | Total distance (m, Mean ± SEM) 60 minutes ([2]; compound 6 mg/kg oral + PCP 5 mg/kg i.p.) [m]
1 | [2H]c1ccc([C@H]2CNCCO2)nc1 (single isomer, unassigned) [Example 6-2, 2-(pyridin-2-yl-5-d)morpholine] | 3.4 | 6480 | 3030 | 15 | 48 | 4300 | 2050 | 15 | 48 | – | –
2 | [2H]c1ccnc([C@@H]2CNCCO2)c1 (single isomer, unassigned) [Example 7-2, 2-(pyridin-2-yl-4-d)morpholine] | 5.9 | 4410 | 2500 | 30 | 54 | 2840 | 1560 | 30 | 48 | – | –
3 | [2H]C1([2H])COC(c2cc(C)ccn2)CN1 (single isomer, unassigned) [Example 16-1, 2-(4-Methylpyridin-2-yl)morpholin-5,5-d2] | 21.3 | 5630 | 1740 | 15 | 174 | 2270 | 890 | 15 | 114 | – | –
4 | Cc1nc([C@@H]2CNCCO2)ccc1F (single isomer, unassigned) [Example 19-2, 2-(5-fluoro-6-methyl-2-pyridyl)morpholine] | 13.6 | 8640 | 2510 | 120 | 66 | 2760 | 705 | 120 | 222 | – | –
5 | Clc1ccc(C2CNCCO2)nc1 (single isomer, unassigned) [Example 25-2] | 207 | – | – | – | – | – | – | – | – | – | –
6 | [2H]c1ccc(C2CNCCO2)cc1 (single isomer, unassigned) [Example 28-2, 2-(phenyl-4-d)morpholine] | 3 | 3980 | 2110 | 15 | 78 | 2820 | 1340 | 15 | 84 | 113.09 ± 12.69 | –
7 | Clc1cccc(C2CNCCO2)c1 (single isomer, unassigned) [Example 46-1, 2-(3-Chlorophenyl)morpholine] | 17.7 | – | – | – | – | – | – | – | – | – | –
8 | c1ccc(C2CNCCO2)nc1 (stereo not shown) [Compound A, 2-(Pyridin-2-yl)morpholine] | 7.1 | – | – | – | – | – | – | – | – | – | 113.09 ± 12.69
9 | Cc1cccc([C@@H]2CNCCO2)c1 [Example 47-2] | 11.5 | – | – | – | – | – | – | – | – | – | –
10 | Fc1cccc([C@@H]2CNCCO2)c1 [Example 48-1] | 2.1 | – | – | – | – | – | – | – | – | – | –
